Experimental data: patent US20100216767A1, “QUINAZOLINES FOR PDK1 INHIBITION” (priority 2006, published 2010)

These molecules were tested against T1, PDK1 kinase (Homo sapiens, UniProt O15530) (assay: PDK1 Kinase Alpha Screen Assay). Details: Table 1; 10 μM ATP, 50 nM PDK1-4 peptide.
T1 sequence (O15530 1-556): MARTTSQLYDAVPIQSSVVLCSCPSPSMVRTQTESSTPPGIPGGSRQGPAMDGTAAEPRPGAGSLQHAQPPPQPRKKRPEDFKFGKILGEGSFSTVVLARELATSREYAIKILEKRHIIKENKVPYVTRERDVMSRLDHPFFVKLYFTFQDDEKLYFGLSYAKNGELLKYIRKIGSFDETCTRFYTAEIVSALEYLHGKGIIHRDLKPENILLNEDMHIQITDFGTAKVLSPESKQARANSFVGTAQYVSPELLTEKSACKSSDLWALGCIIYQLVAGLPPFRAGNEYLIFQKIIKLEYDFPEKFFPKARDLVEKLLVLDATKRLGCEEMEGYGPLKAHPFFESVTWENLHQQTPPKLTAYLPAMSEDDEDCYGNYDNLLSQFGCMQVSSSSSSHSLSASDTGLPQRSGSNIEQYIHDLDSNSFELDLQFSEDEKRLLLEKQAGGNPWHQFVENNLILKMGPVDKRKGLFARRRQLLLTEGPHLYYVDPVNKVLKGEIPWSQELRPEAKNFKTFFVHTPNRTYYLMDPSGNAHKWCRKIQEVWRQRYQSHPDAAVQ
Assay type: biochemical
Procedure: Reagents/Concentrations: The PDK1-4 peptide substrate, biotin-[…]-NH2, (SEQ ID NO: 1), was purchased from the Tufts University Core Facility. The final concentration of PDK1-4 peptide substrate was 50 nM. The ATP substrate (adenosine-[…] triphosphate) was purchased from Roche Diagnostics. The final concentration of ATP substrate was 10 μM. Phospho-(Ser/Thr) PKA substrate antibody was purchased from Cell Signaling Technology. The final concentration of antibody was 0.3 mg/mL. The Alpha Screen Protein A detection kit containing donor and acceptor beads was purchased from PerkinElmer Life Sciences. The final concentration of both donor and acceptor beads was 25 μg/mL. Alpha Screen was used for detection. The biotinylated-PDK1-4 peptide was phosphorylated by PDK1 kinase using the ATP substrate. The biotinylated-PDK1-4 peptide substrate was bound to the streptavidin coated donor bead. The antibody was bound to the protein A coated acceptor bead. The antibody bound to the phosphorylated form of the biotinylated PDK-1 peptide substrate, bringing the donor and acceptor beads into close proximity. Laser irradiation of the donor bead at 680 nm generated a flow of short-lived singlet oxygen molecules. When the donor and acceptor beads were in close proximity, the reactive oxygen generated by the irradiation of the donor beads initiated a luminescence/fluorescence cascade in the acceptor beads. This process led to a highly amplified signal with output in the 530-620 nm range. Assays were carried out in 50 mM Tris, pH=7.5, 10 mM MgCl2, 0.1% BSA, 0.01% Tween-20, 2 mM dithiolthreitol, 2.5% dimethyl sulfoxide. Reactions were stopped by adding 50 mM Tris, pH=7.5, 90 mM EDTA, 0.1% BSA, 0.01% Tween-20.
Procedure: To 10 μl, of PDK1-4 peptide, […] of test compound in dimethyl sulfoxide was added. PDK1 kinase and ATP were mixed, and 10 μL of the PDK1 kinase/ATP mix was added to start the reaction. The reaction was allowed to proceed for 3-18 hours. The reactions were then stopped by adding 10 μL of the EDTA-containing stop buffer. Beads were mixed with antibody, and 25 μL of the bead/antibody mix was then added to the stopped reactions. Plates were incubated at room temperature overnight to allow for detection development before being read. The assay was run in a 384-well format plate.
Molecule `CC(=O)Nc1cc(CN(C)C)cc(Nc2ncc3cc(Br)cc(F)c3n2)c1` [Example 135, N-(3-(6-Bromo-8-fluoroquinazolin-2-ylamino)-5-((dimethylamino)-methyl)phenyl)acetamide] has an IC50 of under 5 µM. Work on `COc1cc(Br)c(Cl)c2cnc(Nc3ccc(C(=O)NC(C)C)cc3)nc12` [Example 89, 4-(6-bromo-5-chloro-8-methoxyquinazolin-2-ylamino)-N-isopropyl-benzamide] yielded an IC50 of under 5 µM. Molecule `COc1cc(Br)c(Cl)c2cnc(Nc3ccc(N4CCOCC4)cc3)nc12` [Example 116, 6-bromo-5-chloro-8-methoxy-N-(4-morpholinophenyl)-quinazolin-2-amine] has an IC50 of under 5 µM. For `NC(=O)c1ccc(Nc2ncc3cc(Br)ccc3n2)cc1` [Example 79, 4-(6-bromoquinazolin-2-ylamino)benzamide], the IC50 was under 5 µM. For `C#Cc1cc2cnc(Nc3ccc(C(=O)N4CCOCC4)c(Cl)c3)nc2cc1OC` [Example 120, (2-chloro-4-(6-ethynyl-7-methoxyquinazolin-2-ylamino)phenyl)-(morpholino)methanone], the IC50 was under 5 µM. `C#Cc1ccc2nc(Nc3cc(NC(C)=O)cc(NC(C)=O)c3)ncc2c1` [Example 105, N,N′-(5-(6-ethynyl-quinazolin-2-ylamino)-1,3-phenylene)diacetamide] showed an IC50 of under 5 µM. In the case of `CC(=O)Nc1cc(Nc2ncc3cc(Br)ccc3n2)cc(-c2cccnc2)c1` [Example 32, N-(3-(6-Bromoquinazolin-2-ylamino)-5-(pyridine-3-yl)phenyl)acetamide], the IC50 is reported as under 5 µM. `C#Cc1ccc2nc(Nc3cccc(S(N)(=O)=O)c3)ncc2c1` [Example 60, 3-(6-ethynylquinazolin-2-ylamino)benzene-sulfonamide] gave an IC50 of under 5 µM. For `NC(=O)c1ccc2nc(Nc3ccc(S(N)(=O)=O)cc3)ncc2c1` [Example 42, 2-(4-sulfamoylphenyl-amino)quinazoline-6-carboxamide], the IC50 was under 5 µM. With `NC(=O)c1cc(Nc2ncc3cc(Br)ccc3n2)ccc1N1CCOCC1` [Example 123, 5-(6-bromoquinazolin-2-ylamino)-2-morpholino-benzamide] the IC50 was 5 to 10 µM. For `C#Cc1ccc2nc(Nc3cccc(N4CCOCC4)c3)ncc2c1Cl` [Example 121, 5-chloro-6-ethynyl-N-(3-morpholinophenyl)-quinazolin-2-amine], the IC50 was under 5 µM. In the case of `Brc1ccc2nc(Nc3ccc(N4CCOCC4)cc3)ncc2c1` [Example 77, 6-bromo-N-(4-morpholino-phenyl)quinazolin-2-amine], the IC50 is reported as under 5 µM. Molecule `COc1cc(C#CC(C)(C)O)cc2cnc(Nc3ccc(S(N)(=O)=O)cc3)nc12` [Example 65, 4-(6-(3-hydroxy-3-methylbut-1-ynyl)-8-methoxyquinazolin-2-ylamino)benzenesulfonamide] has an IC50 of under 5 µM. Work on `C#Cc1ccc2nc(Nc3cc(CN(C)C)cc(NC(C)=O)c3)ncc2c1` [Example 83, N-(3-((dimethylamino)-methyl)-5-(6-ethynyl-quinazolin-2-ylamino)-phenyl)acetamide] yielded an IC50 of under 5 µM. `C#Cc1ccc2nc(Nc3cc(CN4CCNCC4)cc(NC(C)=O)c3)ncc2c1` [Example 141, N-(3-(6-ethynylquinazolin-2-ylamino)-5-(piperazin-1-ylmethyl)phenyl)acetamide] was tested, and the IC50 was under 5 µM. With `NS(=O)(=O)c1ccc(Nc2ncc3cc(C(=O)O)ccc3n2)cc1` [Example 19, Methyl 2-(4-sulfamoylphenylamimo)quinazolin-6-carboxylic acid] the IC50 was under 5 µM. In the case of `C#Cc1cc(OC)c2nc(Nc3cccc(N4CCOCC4)c3)ncc2c1` [Example 80, 6-ethynyl-8-methoxy-N-(3-morpholinophenyl)-quinazolin-2-amine], the IC50 is reported as under 5 µM. With `C#Cc1cc2cnc(Nc3cccc(-n4cnnn4)c3)nc2cc1OC` [Example 103, N-(3-(1H-tetrazol-1-yl)phenyl)-6-ethynyl-7-methoxyquinazolin-2-amine] the IC50 was under 5 µM. `COc1cc2nc(Nc3cccc(-n4cnnn4)c3)ncc2cc1-c1nccs1` [Example 112, N-(3-(1H-tetrazol-1-yl)phenyl)-7-methoxy-6-(thiazol-2-yl)quinazolin-2-amine] gave an IC50 of under 5 µM. `C#Cc1ccc2nc(Nc3cc(NC(C)=O)cc(-c4ccncc4)c3)ncc2c1` [Example 146, N-(3-(6-ethynylquinazolin-2-ylamino)-5-(pyridin-4-yl)phenyl)acetamide] gave an IC50 of under 5 µM. With `Cn1cc(-c2ccc3nc(Nc4ccc(S(N)(=O)=O)cc4)ncc3c2)cn1` [Example 56, 4-(6-(1-methyl-1H-pyrazol-4-yl)quinazolin-2-ylamino)benzene-sulfonamide] the IC50 was under 5 µM. `COc1cc(C#CC(C)(C)N)cc2cnc(Nc3ccc(S(N)(=O)=O)cc3)nc12` [Example 66, 4-(6-(3-amino-3-methylbut-1-ynyl)-8-methoxyquinazolin-2-ylamino)benzenesulfonamide] was tested, and the IC50 was 10 to 25 µM. `C#Cc1cc2cnc(Nc3ccc(-n4cnnn4)cc3)nc2cc1OC` [Example 97, N-(4-(1H-tetrozol-1-yl)phenyl)-6-ethynyl-7-methoxyquinazolin-2-amine] showed an IC50 of under 5 µM. `C#Cc1ccc2nc(Nc3cc(-c4cn[nH]c4)cc(N4CCOCC4)c3)ncc2c1` [Example 158, 6-ethynyl-N-(3-morpholino-5-(1H-pyrazol-4-yl)phenyl)-quinazolin-2-amine] showed an IC50 of under 5 µM. `C#Cc1ccc2nc(Nc3ccc(C(N)=O)cc3)ncc2c1` [Example 58, 4-(6-ethynylquinazolin-2-ylamino)benzamide] gave an IC50 of under 5 µM. For `CN1CCN(c2cc(-c3ccc4nc(Nc5ccc(S(N)(=O)=O)cc5)ncc4c3)ccn2)CC1` [Example 45, 4-(6-(2-(4-methyl-piperazin-1-yl)pyridin-4-yl)quinazolin-2-ylamino)-benzenesulfonamide], the IC50 was under 5 µM. Molecule `COc1cc(-c2cnn(C)c2)cc2cnc(Nc3ccc(S(N)(=O)=O)cc3)nc12` [Example 62, 4-(8-methoxy-6-(1-methyl-1H-pyrazol-4-yl)-quinazolin-2-ylamino)-benzenesulfonamide] has an IC50 of under 5 µM. `C#Cc1ccc2nc(Nc3cccc(CN(C)C)c3)ncc2c1` [Example 71, N-(3-((dimethylamino)-methyl)phenyl)-6-ethynylquinazolin-2-amine] was tested, and the IC50 was under 5 µM. `CC(=O)Nc1cc(CN2CCOCC2)cc(Nc2ncc3cc(-c4cnoc4)ccc3n2)c1` [Example 136, N-(3-(6-(isoxazol-4-yl)quinazolin-2-ylamino)-5-(morpholinomethyl)-phenyl)-acetamide] was tested, and the IC50 was under 5 µM. `CC(=O)Nc1cc(CN(C)C)cc(Nc2ncc3cc(Br)ccc3n2)c1` [Example 147, N-(3-(6-bromoquinazolin-2-ylamino)-5-((dimethyl-amino)methyl)phenyl)-acetamide] showed an IC50 of under 5 µM. In the case of `CC(C)NC(=O)c1ccc(Nc2ncc3cc(C#N)ccc3n2)cc1` [Example 13, 4-(6-Cyanoquinazolin-2-ylamino)-N-Isopropylbenzamide], the IC50 is reported as under 5 µM. In the case of `C#Cc1cc(OC)c2nc(Nc3cc(CN(C)C)cc(NC(C)=O)c3)ncc2c1` [Example 86, N-(3-((dimethylamino)-methyl)-5-(6-ethynyl-8-methoxyquinazolin-2-ylamino)phenyl)acetamide], the IC50 is reported as under 5 µM. `COc1cc(Br)c(Cl)c2cnc(Nc3cc(CN(C)C)cc(NC(C)=O)c3)nc12` [Example 14, N-(3-(6-Bromo-5-chloro-8-methoxyquinazolin-2-ylamino)-5-((dimethylamino)methyl)phenyl)acetamide] was tested, and the IC50 was under 5 µM. `C#Cc1ccc2nc(Nc3cc(CN(C)C)cc(NC(C)=O)c3)ncc2c1Cl` [Example 90, N-(3-(5-chloro-6-ethynyl-quinazolin-2-ylamino)-5-((dimethylamino)methyl)-phenyl)acetamide] was tested, and the IC50 was under 5 µM. With `CC(C)NC(=O)c1ccc(Nc2ncc3cc(-c4nccs4)ccc3n2)cc1` [Example 12, N-Isopropyl-4-(6-(thiazol-2-yl)quinazolin-2-ylamino)benzamide] the IC50 was under 5 µM. Work on `COc1cc(C)cc2cnc(Nc3ccc(S(N)(=O)=O)cc3)nc12` [Example 5, 4-(8-Methoxy-6-methylquinazolin-2-ylamino)benzenesulfonamide] yielded an IC50 of under 5 µM.
